Results taken from the supplement of paper PMC11616607.

Tests used:
Assay in all cases: drug sensitivity score (DSS) from 5-point dose-response viability curve (DSS (area-under-curve based score)); higher = more sensitive (stronger growth inhibition or killing); extreme values may be limits of the assay
Details in all cases: exposure time: 72 h; concentration range: 5 concentrations over 10,000-fold range
[1] = test system: OVCAR8
How it was run: (§1)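 Ovarian cancer and normal ovarian cell lines were tested in 384-well plates. Drugs were acoustically dispensed (Echo 550) in DMSO or water at five concentrations spanning a 10,000-fold range, then 1,500 cells per well were added and incubated 3 days at 37°C, 5% CO2. Viability was read by CellTiter-Glo luminescence on a PHERAstar FS. Drug sensitivity score was derived per cell line and drug with Breeze software; higher means more sensitive, zero means no response.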

[2] = test system: HOSE1C
How it was run: as §1

[3] = test system: Kuramochi
How it was run: as §1

[4] = test system: COV318
How it was run: as §1

[5] = test system: COV362
How it was run: as §1

[6] = test system: OVCAR4
How it was run: as §1

[7] = test system: OVCAR5
How it was run: as §1

[8] = test system: Ovsaho
How it was run: as §1

[9] = test system: HOSE2C
How it was run: as §1

[10] = test system: CAOV3
How it was run: as §1

[11] = test system: JHOS2
How it was run: as §1

[12] = test system: OV90
How it was run: as §1

Structure (SMILES)	drug sensitivity score [1]	drug sensitivity score [2]	drug sensitivity score [3]	drug sensitivity score [4]	drug sensitivity score [5]	drug sensitivity score [6]	drug sensitivity score [7]	drug sensitivity score [8]	drug sensitivity score [9]	drug sensitivity score [10]	drug sensitivity score [11]	drug sensitivity score [12]
CNS(=O)(=O)Nc1nccc(Cc2c(C)c3ccc(Oc4ncccn4)cc3oc2=O)c1F	0	0	0	0	0	1.7	0	0.3	0	3.3	0	6.3
C/C(=C\c1csc(C)n1)[C@@H]1C[C@@H]2O[C@]2(C)CCC[C@H](C)[C@H](O)[C@@H](C)C(=O)C(C)(C)[C@@H](O)CC(=O)N1 [Ixabepilone]	5.2	1.6	2.6	2.9	1.3	2.1	4.5	2	2	4.6	2.7	2.4
C[C@@H]1CN(Cc2ccc(F)cc2)[C@@H](C)CN1C(=O)c1cc2c(C(=O)C(=O)N(C)C)cn(C)c2cc1Cl [Talmapimod]	0	0	0	0	0	0	0	0	0	0	0	0
Nc1ncn([C@@H]2O[C@H](CO)[C@@H](O)[C@H]2O)c(=O)n1 [Azacitidine]	3.4	0	0.9	1.1	0.7	1.6	2.2	3.5	0	1.7	4.4	3.8
Cc1nc(NC(=O)N2CCC[C@H]2C(N)=O)sc1-c1ccnc(C(C)(C)C(F)(F)F)c1 [Alpelisib]	0.3	2.2	2.4	0.5	0	0.9	4.2	0.4	3.2	3.7	0.6	1
CC(C)C[C@H](NC(=O)[C@@H](COC(C)(C)C)NC(=O)[C@H](Cc1ccc(O)cc1)NC(=O)[C@H](CO)NC(=O)[C@H](Cc1c[nH]c2ccccc12)NC(=O)[C@H](Cc1cnc[nH]1)NC(=O)[C@@H]1CCC(=O)N1)C(=O)N[C@@H](CCCNC(=N)N)C(=O)N1CCC[C@H]1C(=O)NNC(N)=O [Goserelin]	0	0	0	0	0	0	0	4.7	0	0	0	0
CCC1(c2ccc(N)cc2)CCC(=O)NC1=O (stereo not given) [Aminoglutethimide]	0	0.2	0	0	0	0	0	0	0	0.2	0	0
Cc1cnc(-c2ccccc2C(C)C)nc1NCc1ccc(-n2ccnn2)cc1 [ML323]	0	0	0	0.1	0	1.5	0	0	0	0.3	0	0.1
COc1c(OCCCN2CCOCC2)ccc2c1N=C(NC(=O)c1cnc(N)nc1)N1CCN=C21 [Copanlisib]	5.7	4.8	8	3.8	2.5	5.3	10.4	6.3	6.6	9.9	2.6	3.5
Cc1sc2c(c1C)C(c1ccc(Cl)cc1)=N[C@@H](CC(=O)Nc1ccc(OCCOCCOCCOCCNc3cccc4c3C(=O)N(C3CCC(=O)NC3=O)C4=O)cc1)c1nnc(C)n1-2 (stereo not given in full) [ARV-825]	15.5	17.3	9.9	5.2	1.5	8.2	7.9	10	7.9	5.4	4.6	6.7
CC(C)C[C@H](NC(=O)CNC(=O)c1cc(Cl)ccc1Cl)B(O)O [Ixazomib]	9	7.4	2.7	16.4	10.5	6.5	10.4	7	7.8	11.6	10.6	5.5
CC(C)Cn1cnc2c(N)nc3ccccc3c21 [Imiquimod]	0.1	0	0	0	0	0	0	0	0	0	0.5	0
NC(=O)c1cccc(-c2cccc(OC(=O)NC3CCCCC3)c2)c1 [URB597]	0	0	0	0	0	0	0	0	0	0	0	0
CC[C@H](CC#N)OC(=O)N[C@@H](C)c1cccc(NC(=O)Nc2ccc(-c3cnco3)c(OC)c2)c1 [AVN944]	11.1	25	8	9.4	3.3	7	13.6	9.5	15.8	10.9	9.6	12.7
Oc1ncnc2[nH]ncc12 [Allopurinol]	0	0	0	0	0	0.2	0	0	0	0	0	0.3
